These results are taken from patent US20260027102A1, “QUINOLYLNITRONE DERIVATIVES FOR USE IN THE PREVENTION AND/OR TREATMENT OF HEARING LOSS” (CONSEJO SUPERIOR DE INVESTIGACIONES CIENTÍFICAS (CSIC), priority 2022, published 2026).

Series [1] has as its system HEI-OC1 mouse auditory cells. Description: XTT cell viability assay in HEI-OC1 auditory cells with or without H2O2. Format: cell-based. As for the experimental part: QN23 nitrone was tested in cell cultures of HEI-OC1 mouse auditory cells derived from the Immortomouse™ postnatal organ of Corti following protocols published by the group (Cervantes et al., J Clin Med. 2019 Sep. 14; 8 (9): 1464). HEI-OC1 cells were cultured in DMEM medium supplemented with 10% fetal bovine serum (Gibco), without antibiotics.
Cells were treated with different doses of QN23 (10-50-100-150-200 μM) and with or without 1.2 mM H2O2. Cell viability was studied by XTT assay. Absorbance measurements at 450 and 660 nm were taken with the VERSAmax plate reader at 4 h, 6 h and 23 h after addition of XTT reagents. Viability results were calculated following the formula: Specific absorbance=[Abs450 nm (test)−Abs450 nm (blank)]−Abs660 nm (test). The wells without cells in the respective treatments were used as blanks. Data are represented as mean±SEM, considering the untreated control as 100% viability. Results are from 3 independent experiments and 7 wells/condition/experiment for QN23 nitrone without H2O2 treatment (A-C) or with treatment (D-E). Statistical significance was calculated by Student's test: *p<0.05; **p<0.01; ***p<0.001 in comparison vs. untreated control with QN23. […] After the exposure to H2O2, the cell viability was reduced about 50% due to the cell death associated to the oxidative damage caused by H2O2.
The inventors also compared the effect of QN23 with N-acetylcysteine (NAC). To that end, QN23 nitrone was dissolved in absolute EtOH≥99.5% (#107017; Merck) and tested in vitro in a dose range of 10-200 μM. Cells were treated with increasing doses of H2O2 (1-1.4 mM; Merck).
N-acetylcysteine (NAC) (0.5 mM; Sigma) was used as a reference antioxidant treatment. NAC is a prodrug of L-cysteine, itself a precursor of the biological antioxidant glutathione, among other intracellular actions (Ezerina et al., Cell Chem Biol. 2018 Apr. 19; 25 (4): 447-459.e4). Cells were treated with increasing doses of H2O2 (0.8-1.6 mM).
In both cases, survival curves were performed using the CyQUANT™ XTT cell viability assay (#X12223; Invitrogen) after 2 hours of the administration of QN23 or NAC.
Phenyl N-t-butylnitrone≥98% C6H5CH═N(O)C(CH3)3, PBN) (Sigma-Aldrich, catalogue number B7263) was dissolved as indicated by the manufacturer in Dimethyl sulfoxide (DMSO). DMSO was used as a solvent and had no detectable effects at the dose used (up to 0.1%). A solution 50 uM was prepared to determine the protective effect.
Cell culture, treatments with PBN and XTT assays were performed as already reported for QN23 in sections above.

Series [2] concerns C57BL/6JCrl mice. Put plainly: Noise-induced hearing loss in mice, auditory brainstem response (ABR) thresholds. The series is classed as in vivo. The following applies: 24 h after noise exposure (105 dB, 30 min); QN23 2 mg/kg every 12 h intraperitoneally for 3 days, started 1 h before noise; vs vehicle; click and pure tones 4-32 kHz. How it is done: The experiments were carried out in C57BL/6JCrl mice, male or female, aged 1.5 months at the beginning of the study.
Noise exposure was performed inside a reverberation chamber. The animals were exposed to 105 dB SL for 30 minutes (Sanz L, Murillo-Cuesta S, Cobo P, Cediel-Algovia R, Contreras J, Rivera T, Varela-Nieto I, Avendaño C. Swept-sine noise-induced damage as a hearing loss model for preclinical assays. Front Aging Neurosci. 2015 Feb. 16; 7:7).
Auditory function was assessed by recording auditory brainstem evoked potentials (ABR) at baseline and after noise exposure (1 day, 14 days and 28 days after exposure), according to protocol described in (Murillo-Cuesta S, Contreras J, Zurita E, Cediel R, Cantero M, Varela-Nieto I, Montoliu L. Melanin precursors prevent premature age-related and noise-induced hearing loss in albino mice. Pigment Cell Melanoma Res. 2010 February; 23 (1): 72-83. doi: 10.1111/j.1755-148X.2009.00646.x. Epub 2009 Oct. 19).
The nitrone QN23 was prepared as described in WO2020/074666. The solution for its administration was always performed at the time of use by dissolving it under vigorous stirring in a mixture of ethanol, polyethylene glycol (PEG400, Sigma) and saline (1:200:60, V/V), until a stock solution of concentration 3.6 mg/ml was obtained. […]

For the compound `CC(=O)N[C@@H](CS)C(=O)O` [NAC, N-acetylcysteine, reference compound], in series [1] (0.5 mM NAC, H2O2 0.8-1.6 mM, 2 h), the “Protective effect on cell viability at increasing doses of H2O2” value is “effectively protected from H2O2-induced oxidative damage and cell death at the highest doses tested”.
On to `CC(C)(C)[N+]([O-])=Cc1ccccc1` [PBN, Phenyl N-t-butylnitrone, reference compound], for which, in series [1] (50 μM PBN, without or with increasing doses of H2O2, 2 h, XTT read at 4 and 6 h, 1 experiment), the “Protective effect on cell viability at increasing doses of H2O2” value is “no protection was observed when H2O2 doses were higher than 0.5 mM”.
As for `COc1ccc2nc(Cl)c(/C=[N+](\[O-])C(C)(C)C)cc2c1` [QN23, (Z)—N-tert-butyl-1-(2-chloro-6-methoxyquinolin-3-yl)methanimine oxide], in series [2], the “Auditory Brainstem Response thresholds after noise exposure” value was “significantly lower thresholds than those receiving vehicle”. Besides, the “Cell viability at low H2O2 concentration (early stages of cell deterioration)” value in series [1] (50 μM QN23, 0.8 mM H2O2, 2 h) was “enhancement of cell viability even at concentrations as low as 0.8 mM H2O2”. Moreover, the “Protective effect on cell viability at increasing doses of H2O2” value in series [1] (50 μM QN23, H2O2 0.8-1.6 mM, 2 h) is recorded as “cell viability superior at all H2O2 concentrations tested”. For the same compound, in series [1] (QN23 10-200 μM for 2 h, without H2O2, XTT read at 4, 6 and 23 h), the “Toxicity to cells (cell viability without H2O2)” value is listed as “not toxic to the cells”. Moreover, the “Cell viability after exposure to H2O2” value in series [1] (QN23 10-50-100-150-200 μM with 1.2 mM H2O2 for 2 h, vs non-treated control group) is recorded as “significantly increased cell viability at all the doses tested”.
